Test results as given in patent US20050014692A1, “Lactate dehydrogenase as a novel target and reagent for diabetes therapy” (priority 2003, published 2005).
Entries after “also recorded” stand apart in the source; their conditions may differ.

Assays:
[1] = system: glycerol kinase overexpressing 832/13 cells; assay: 13C studies in glycerol kinase overexpressing 832/13 cells (insulin secretion, lactate output, pyruvate cycling); assay type: cell-based, rat
Description: FIG. 9 depicts the effect of glycerol kinase overexpression in 832/13 cells on insulin excretion, lactate output and pyruvate cycling.
In contrast, pyruvate cycling and lactate output are higher in response to glycerol than to glucose.

832/13 cells = assay: Insulin secretion assay in 832/13 cells (radioimmunoassay); assay type: cell-based, rat
Procedure: FIG. 3. Stimulation of insulin secretion by lactate, pyruvate, and glucose in 832/13 cells. Confluent, insulin secreting 832/13 cells were stimulated for 2 hours with various concentrations of secretagogues as indicated in the figure, and IS was determined by radioimmunoassay of the cell supernatant.
FIG. 4. The effect of rat LDHA overexpression on glucose, pyruvate, and lactate-stimulated insulin secretion in 832/13 cells. 832/13 cells were treated with adenovirus expressing rat LDHA (AdLDH) and beta-galactosidase (Adbetagal), respectively. The LDH activity in cell extracts was monitored by the decrease in absorbance at 340 nm (insert) and the insulin response to glucose, pyruvate, and lactate was examined by radioimmunoassay.
FIG. 7B. The effect of the LDH inhibitor oxamate on insulin secretion in 832/13 cells. Cells were incubated with ^13C labeled glucose for 4 hours in the presence or absence of oxamate.
FIG. 14. The effect of mitLDHA and LDHA on fuel-mediated IS in the 832/13 cells. The inset depicts the activity of LDH for each experiment.
The cell line 832/13 was created from INS-1 insulinoma β-cells as described earlier (Hohmeier et al. (2000) Diabetes 49:424430). Cells were cultured in RPMI-1640 medium containing 11 mM glucose supplemented with 10% fetal bovine serum, 10 mM HEPES, 2 mM glutamine, 1 mM sodium pyruvate and […] β-mercaptoethanol. Media was routinely changed every second day. […]
Insulin secretion was assayed in HEPES buffered saline solution (HBSS) (114 mM NaCl, 4.7 mM KCl, 1.2 mM KH2PO4, 1.16 mM MgSO4, 20 mM HEPES, 2.5 mM CaCl2, 25.5 mM NaHCO3, pH 7.2 containing 0.2% bovine serum albumin (essentially fatty acid free). Cells were washed in 1 ml of HBSS, preincubated in 1.5 ml of HBSS for 2 hour prior to a 2 hour incubation in the presence of secretagogues as indicated in the figures. The insulin levels were determined by radioimmunoassay with the Coat-A-Count kit (ICN Pharmaceuticals, Costa Mesa, Calif.) and lactate output was determined with a Lactate Reagent kit (Sigma, St. Louis, Mo.) according to protocols outlined by the manufacturer.

[2] = system: cell lines derived from rat INS-1 cells; settings: glucose-responsive clones; in direct correlation with changes in pyruvate cycling; cited from earlier work

**Q.** For OCC(O)CO [glycerol], which “lactate output, compared with glucose” value [1] is on record?
**A.** higher

**Q.** And the “pyruvate cycling, compared with glucose” value [1]?
**A.** higher

**Q.** And the “stimulation of insulin secretion, compared with glucose” value [1]?
**A.** to the same extent

**Q.** With CC(O)C(=O)O (centres unmarked) [lactate] as the compound, how does the “stimulation of insulin secretion as secretagogue” value (from here on “stimulation … as secretagogue”) (832/13 cells; 832/13 cells overexpressing LDHA (AdLDH treated)) read?
**A.** as effective as the other two fuels; also recorded: as effective as glucose or pyruvate

**Q.** What about the “stimulation … as secretagogue” value (832/13 cells; 832/13 cells without LDHA overexpression, 2 hours, relative to glucose or pyruvate) of the same compound?
**A.** poor secretagogue; also recorded: only a weak stimulator

**Q.** What about the “stimulation … as secretagogue” value (832/13 cells; 832/13 cells without LDHA overexpression, 2 hours, relative to glucose or pyruvate, listed as Lactate) of the same compound?
**A.** poor secretagogue

**Q.** For O=C(O)Cc1ccccc1 [phenylacetic acid], which “effect on glucose-stimulated IS” value [2] is on record?
**A.** impaired

**Q.** Which “effect on glucose-stimulated IS” value [2] does the source give for malate in the form of methyl ester here?
**A.** potentiated
